Data: US8835440B2, “Cyclic pyrimidin-4-carboxamides as CCR2 receptor antagonists for treatment of inflammation, asthma and COPD” (Boehringer Ingelheim International GmbH, priority 2008, dated 2014)

These compounds were tested against T1, CCR2 (Homo sapiens, UniProt P41597) (assay: CCR2 receptor membrane binding assay ([125I]MCP-1, THP-1 cell membranes, SPA beads)). Settings: dissociation constant hKi; [125I]MCP-1 binding to THP-1 membranes.
T1 construct: Membranes were prepared from THP-1 cells; endogenous in cells; host or cells: THP-1 cells (membrane preparation)
T1 sequence (P41597 1-360 isoform P41597-2): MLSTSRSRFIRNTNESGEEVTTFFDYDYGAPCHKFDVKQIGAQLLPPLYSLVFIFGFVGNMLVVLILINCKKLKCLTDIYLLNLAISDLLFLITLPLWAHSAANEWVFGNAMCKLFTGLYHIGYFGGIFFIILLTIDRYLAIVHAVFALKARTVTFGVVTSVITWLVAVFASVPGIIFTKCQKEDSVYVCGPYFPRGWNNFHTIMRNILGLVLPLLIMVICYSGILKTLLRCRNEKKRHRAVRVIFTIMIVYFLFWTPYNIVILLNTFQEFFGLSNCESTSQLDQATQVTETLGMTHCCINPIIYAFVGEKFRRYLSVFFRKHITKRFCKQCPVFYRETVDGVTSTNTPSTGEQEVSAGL
Outline: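 hKi was derived by iterative law-of-mass-action fitting of scintillation counts read at 8 h. Compound (1% DMSO final) competed with ca. 25000 cpm [125I]MCP-1 for THP-1 membranes bound to WGA-PVT beads. Buffer: 25 mM HEPES pH 7.2, 5 mM MgCl2, 0.5 mM CaCl2, 0.2% BSA.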

SMILES	Ki
Cc1c(NCC2CCC(c3ccc(Cl)cc3)C2)ncnc1C(=O)N1CCC(N2CCC(N(C)S(C)(=O)=O)CC2)CC1 (stereo not drawn) [Example 159c]	13 nM
Cc1c(NCC2CCCC(c3ccc(Cl)cc3)C2)ncnc1C(=O)N1CCC(N2CCC(NS(C)(=O)=O)CC2)CC1 (stereo not drawn) [Example 159ca]	3 nM
Cc1ccc(C2CCC(CNc3ncnc(C(=O)N4CCC(N5CCC(N(C)S(C)(=O)=O)CC5)CC4)c3C)O2)cc1 (stereo not drawn) [Example 159cb]	39 nM
Cc1nc(NC[C@@H]2CCC[C@H](c3ccc(C)o3)C2)c(C)c(C(=O)N2CCC(N3CCC(N(C)S(C)(=O)=O)CC3)CC2)n1 [Example 159cc]	10 nM
Cc1c(NCC2CCC(c3ccccc3)C2)ncnc1C(=O)N1CCC(N2CCC(N(C)S(C)(=O)=O)CC2)CC1 (stereo not drawn) [Example 159d]	15 nM
Cc1c(NCC2CCCC(c3ccc(Cl)cc3)C2)ncnc1C(=O)N1CCC(N2CCC(N(C)S(C)(=O)=O)CC2)CC1 (stereo not drawn) [Example 159da]	5 nM
Cc1c(NCC2CCCC(c3cccc(F)c3)C2)ncnc1C(=O)N1CCC(N2CCC(N(C)S(C)(=O)=O)CC2)CC1 (stereo not drawn) [Example 159db]	16 nM
COC1COCCC1NC1CCN(C(=O)c2ncnc(NCC3CCCCC3)c2C)CC1 (stereo not drawn) [Example 159dc]	38 nM
Cc1c(NCC2CCCCC2)ncnc1C(=O)N1CCC(N2CCC(N(C)S(C)(=O)=O)CC2)CC1 [Example 159e]	28 nM
CNC(=O)C1CCN(C2CCN(C(=O)c3ncnc(NCC4CCCC(c5ccc(Cl)cc5)C4)c3C)CC2)CC1 (stereo not drawn) [Example 159ea]	7 nM
Cc1c(NCC2CC(c3ccccc3)CO2)ncnc1C(=O)N1CCC(N2CCC(N(C)S(C)(=O)=O)CC2)CC1 (stereo not drawn) [Example 159eb]	72 nM
COC1COCCC1NC1CCN(C(=O)c2ncnc(NC3Cc4ccccc4C3)c2C)CC1 (stereo not drawn) [Example 159ec]	961 nM
Cc1c(NCC2CCC(C(C)C)CC2)ncnc1C(=O)N1CCC(N2CCC(N(C)S(C)(=O)=O)CC2)CC1 (stereo not drawn) [Example 159f]	14 nM
Cc1c(NCC2CCCCCC2)ncnc1C(=O)N1CCC(N2CCC(N(C)S(C)(=O)=O)CC2)CC1 [Example 159fa]	35 nM
Cc1c(NCC2COC(c3ccccc3)C2)ncnc1C(=O)N1CCC(N2CCC(N(C)S(C)(=O)=O)CC2)CC1 (stereo not drawn) [Example 159fb]	199 nM
COC1COCCC1NC1CCN(C(=O)c2ncnc(NCC3Cc4ccccc4C3)c2C)CC1 (stereo not drawn) [Example 159fc]	13 nM
Cc1c(NCC2CCCC(C)C2)ncnc1C(=O)N1CCC(N2CCC(N(C)S(C)(=O)=O)CC2)CC1 (stereo not drawn) [Example 159g]	15 nM
Cc1nc(NC[C@H]2CC[C@H](c3cccc(C(F)(F)F)c3)O2)c(C)c(C(=O)N2CCC(N3CCC(N(C)S(C)(=O)=O)CC3)CC2)n1 [Example 159ga]	28 nM
Cc1ccc([C@H]2CC[C@H](CNc3ncnc(C(=O)N4CCC(N5CCC(N(C)S(C)(=O)=O)CC5)CC4)c3C)O2)cc1 [Example 159gb]	39 nM
Cc1c(NCC2CCc3ccccc3N2)ncnc1C(=O)N1CCC(N2CCC(N(C)S(C)(=O)=O)CC2)CC1 (stereo not drawn) [Example 159gc]	26 nM

SMILES	Ki
Cc1c(NCC2CCCC(C)(C)C2)ncnc1C(=O)N1CCC(N2CCC(N(C)S(C)(=O)=O)CC2)CC1 (stereo not drawn) [Example 159h]	39 nM
Cc1c(NC[C@H]2CC[C@H](c3cccc(C(F)(F)F)c3)O2)ncnc1C(=O)N1CCC(N2CCC(N(C)S(C)(=O)=O)CC2)CC1 [Example 159ha]	27 nM
Cc1c(NCC2CCC(c3ccc(C(F)(F)F)cc3)O2)ncnc1C(=O)N1CCC(N2CCC(N(C)S(C)(=O)=O)CC2)CC1 (stereo not drawn) [Example 159hb]	20 nM
CNC(=O)C1CCN(C2CCN(C(=O)c3ncnc(NCC4CCCC(c5ccccc5)C4)c3C)CC2)CC1 (stereo not drawn) [Example 159i]	24 nM
Cc1cccc([C@H]2CC[C@H](CNc3ncnc(C(=O)N4CCC(N5CCC(N(C)S(C)(=O)=O)CC5)CC4)c3C)O2)c1 [Example 159ia]	17 nM
Cc1nc(NCC2CCC(c3ccc(C(F)(F)F)cc3)O2)c(C)c(C(=O)N2CCC(N3CCC(N(C)S(C)(=O)=O)CC3)CC2)n1 (stereo not drawn) [Example 159ib]	15 nM
Cc1cccc([C@H]2CC[C@H](CNc3nc(C)nc(C(=O)N4CCC(N5CCC(N(C)S(C)(=O)=O)CC5)CC4)c3C)O2)c1 [Example 159ja]	18 nM
Cc1ccc([C@H]2CC[C@@H](CNc3ncnc(C(=O)N4CCC(N5CCC(N(C)S(C)(=O)=O)CC5)CC4)c3C)O2)cc1 [Example 159jb]	39 nM
CCC1CCC(CNc2ncnc(C(=O)N3CCC(N4CCC(N(C)S(C)(=O)=O)CC4)CC3)c2C)CC1 (stereo not drawn) [Example 159k]	22 nM
Cc1nc(NC[C@@H]2CC[C@H](c3ccc(C(F)(F)F)cc3)O2)c(C)c(C(=O)N2CCC(N3CCC(N(C)S(C)(=O)=O)CC3)CC2)n1 [Example 159ka]	19 nM
COC1CCN(C2CCN(C(=O)c3ncnc(NCC4CCCC(c5ccc(F)cc5)C4)c3C)CC2)CC1 (stereo not drawn) [Example 159kb]	24 nM
Cc1c(NCC2CCC(C)CC2)ncnc1C(=O)N1CCC(N2CCC(N(C)S(C)(=O)=O)CC2)CC1 (stereo not drawn) [Example 159l]	22 nM
Cc1c(NC[C@@H]2CC[C@H](c3ccc(C(F)(F)F)cc3)O2)ncnc1C(=O)N1CCC(N2CCC(N(C)S(C)(=O)=O)CC2)CC1 [Example 159la]	19 nM
COC1CCN(C2CCN(C(=O)c3ncnc(NCC4CCCC(c5ccc(Cl)cc5)C4)c3C)CC2)CC1 (stereo not drawn) [Example 159lb]	12 nM
Cc1c(NC[C@@H]2CC[C@@H](c3ccc(C(F)(F)F)cc3)O2)ncnc1C(=O)N1CCC(N2CCC(N(C)S(C)(=O)=O)CC2)CC1 [Example 159ma]	20 nM
Cc1c(NCc2coc(-c3ccccc3)c2)ncnc1C(=O)N1CCC(N2CCC(N(C)S(C)(=O)=O)CC2)CC1 [Example 159mb]	14 nM
Cc1c(NCC2CCCC(c3ccccn3)C2)ncnc1C(=O)N1CCC(N2CCC(N(C)S(C)(=O)=O)CC2)CC1 (stereo not drawn) [Example 159n]	233 nM
Cc1ccc(C2CCC(CNc3ncnc(C(=O)N4CCC(N5CCC(N(C)S(C)(=O)=O)CC5)CC4)c3C)O2)cc1F (stereo not drawn) [Example 159na]	21 nM
Cc1c(NCC2Cc3ccccc32)ncnc1C(=O)N1CCC(N2CCC(N(C)S(C)(=O)=O)CC2)CC1 (stereo not drawn) [Example 159nb]	88 nM
Cc1c(NCC2CCC(C(C)(C)C)CC2)ncnc1C(=O)N1CCC(N2CCC(N(C)S(C)(=O)=O)CC2)CC1 (stereo not drawn) [Example 159o]	12 nM

The next lines start with the values.

Ki	SMILES
29 nM	Cc1ccc(C2CCC(CNc3nc(C)nc(C(=O)N4CCC(N5CCC(N(C)S(C)(=O)=O)CC5)CC4)c3C)O2)cc1 (stereo not drawn) [Example 159oa]
118 nM	Cc1c(NCC2CCc3ccccc3O2)ncnc1C(=O)N1CCC(N2CCC(N(C)S(C)(=O)=O)CC2)CC1 (stereo not drawn) [Example 159ob]
7 nM	CNC(=O)C1CCN(C2CCN(C(=O)c3ncnc(NC[C@H]4CCC[C@@H](c5ccccc5)C4)c3C)CC2)CC1 [Example 159p]
32 nM	Cc1c(NCC2CCC(c3cccc(C(F)(F)F)c3)O2)ncnc1C(=O)N1CCC(N2CCC(N(C)S(C)(=O)=O)CC2)CC1 (stereo not drawn) [Example 159pa]
10 nM	Cc1c(NCC2CCc3ccccc3C2)ncnc1C(=O)N1CCC(N2CCC(N(C)S(C)(=O)=O)CC2)CC1 (stereo not drawn) [Example 159pb]
10 nM	Cc1c(NCC2CCC(c3ccc(F)cc3)C2)ncnc1C(=O)N1CCC(N2CCC(N(C)S(C)(=O)=O)CC2)CC1 (stereo not drawn) [Example 159q]
19 nM	Cc1nc(NCC2CCC(c3cccc(C(F)(F)F)c3)O2)c(C)c(C(=O)N2CCC(N3CCC(N(C)S(C)(=O)=O)CC3)CC2)n1 (stereo not drawn) [Example 159qa]
69 nM	Cc1c(NCC2Cc3ccccc3O2)ncnc1C(=O)N1CCC(N2CCC(N(C)S(C)(=O)=O)CC2)CC1 (stereo not drawn) [Example 159qb]
2580 nM	Cc1c(NCC2CCC(c3nc4ccccc4[nH]3)CC2)ncnc1C(=O)N1CCC(N2CCC(N(C)S(C)(=O)=O)CC2)CC1 (stereo not drawn) [Example 159r]
22 nM	Cc1cccc(C2CCC(CNc3ncnc(C(=O)N4CCC(N5CCC(N(C)S(C)(=O)=O)CC5)CC4)c3C)O2)c1 (stereo not drawn) [Example 159ra]
54 nM	Cc1c(NCC2Cc3cc(Cl)ccc3O2)ncnc1C(=O)N1CCC(N2CCC(N(C)S(C)(=O)=O)CC2)CC1 (stereo not drawn) [Example 159rb]
1310 nM	Cc1c(NCC2CN(c3ccccc3)CCO2)ncnc1C(=O)N1CCC(N2CCC(N(C)S(C)(=O)=O)CC2)CC1 (stereo not drawn) [Example 159s]
22 nM	Cc1cccc(C2CCC(CNc3nc(C)nc(C(=O)N4CCC(N5CCC(N(C)S(C)(=O)=O)CC5)CC4)c3C)O2)c1 (stereo not drawn) [Example 159sa]
21 nM	Cc1c(NCC2COc3ccc(Cl)cc3C2)ncnc1C(=O)N1CCC(N2CCC(N(C)S(C)(=O)=O)CC2)CC1 (stereo not drawn) [Example 159sb]
1200 nM	Cc1c(NCC2(c3ccccc3)CCCCC2)ncnc1C(=O)N1CCC(N2CCC(N(C)S(C)(=O)=O)CC2)CC1 [Example 159t]
27 nM	Cc1nc(NCC2CCC(c3ccc(C)c(F)c3)O2)c(C)c(C(=O)N2CCC(N3CCC(N(C)S(C)(=O)=O)CC3)CC2)n1 (stereo not drawn) [Example 159ta]
13 nM	Cc1c(NC[C@H]2C[C@H](c3ccc(Cl)cc3)C2)ncnc1C(=O)N1CCC(N2CCC(N(C)S(C)(=O)=O)CC2)CC1 [Example 159tb]
29 nM	Cc1c(NCc2ccc(-c3ccccc3)o2)ncnc1C(=O)N1CCC(N2CCC(N(C)S(C)(=O)=O)CC2)CC1 [Example 159u]
23 nM	Cc1nc(NC[C@H]2CC[C@H](c3ccc(Cl)cc3)O2)c(C)c(C(=O)N2CCC(N3CCC(N(C)S(C)(=O)=O)CC3)CC2)n1 [Example 159ua]
18 nM	Cc1c(NC[C@H]2C[C@H](c3ccccc3)C2)ncnc1C(=O)N1CCC(N2CCC(N(C)S(C)(=O)=O)CC2)CC1 [Example 159ub]
